Test results published in the supplement of paper PMC10627819.

Columns and labels:
B. subtilis 168 [1] = assay: fitness (endpoint OD595 vs no drug) (fraction); higher = more growth
How it was run: (§1)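 Plates with 384 wells were inoculated at OD595 0.01 using 30 µl of TSB, LB Lennox or CY, or 55 µl for S. pneumoniae. Incubation was at 37 °C, with OD595 measured every 30 min for 14 h. Fitness is the stationary-phase transition optical density over the robust mean of no-drug control wells, after first-reading background subtraction; it is capped at 1.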

S. pneumoniae D39V [2] = assay: as above
How it was run: as §1

B. subtilis 168 [3] = assay: Bliss interaction score (quartile over a dose matrix) (fitness difference); higher = more antagonism (negative = synergy)
How it was run: (§2)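 Fitness is OD595 at stationary-phase entry relative to the plate's robust no-drug mean, capped at 1. Single-drug fitness was inferred from combinations. The Bliss score is observed minus product-expected fitness, summarised by quartiles over technical, biological and donor/recipient replicates.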

S. aureus DSM 20231 = assay: as above
How it was run: as §2

S. aureus Newman = assay: as above
How it was run: as §2

S. pneumoniae D39V [4] = assay: as above
How it was run: as §2
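Throughout, for Bliss interaction score (quartile over a dose matrix): first quartile when negative (synergy) and third quartile when positive (antagonism).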

C[C@H]1COc2c(N3CCN(C)CC3)c(F)cc3c(=O)c(C(=O)O)cn1c23 [Levofloxacin] + CC1=C\[C@@H](O)CC(=O)Cc2nc(co2)C(=O)N2CCC=C2C(=O)O[C@H](C(C)C)[C@H](C)/C=C/C(=O)NC\C=C\1 [Virginiamycin M1]
fitness, one replicate
Conditions | partner 0.0625 µg/mL | partner 0.125 µg/mL | partner 0.15 µg/mL | partner 0.25 µg/mL | partner 0.3 µg/mL | partner 0.5 µg/mL | partner 1 µg/mL
B. subtilis 168 [1], first compound 0.001 µg/mL | 0.869 | 0.947 | – | 0.969 | – | – | –
B. subtilis 168 [1], first compound 0.002 µg/mL | 0.949 | 0.971 | – | 0.936 | – | – | –
B. subtilis 168 [1], first compound 0.0039 µg/mL | 0.887 | 0.918 | – | 0.904 | – | – | –
S. pneumoniae D39V [2], first compound 0.2 µg/mL | – | – | 0.954 | – | 0.876 | 0.925 | 0.937
S. pneumoniae D39V [2], first compound 0.4 µg/mL | – | – | 0.921 | – | 0.913 | 0.834 | 0.832
S. pneumoniae D39V [2], first compound 0.8 µg/mL | – | – | 0.829 | – | 0.797 | 0.539 | 0.391

Conditions | fitness
B. subtilis 168 [1], first compound 0.0312 µg/mL, partner 0.0625 µg/mL | 0.0334
B. subtilis 168 [1], first compound 0.0312 µg/mL, partner 0.125 µg/mL | 0.0383
B. subtilis 168 [1], first compound 0.0312 µg/mL, partner 0.25 µg/mL | 0.0414
B. subtilis 168 [1], first compound 0.0625 µg/mL, partner 0.0625 µg/mL | 0.0348
B. subtilis 168 [1], first compound 0.0625 µg/mL, partner 0.125 µg/mL | 0.0328
B. subtilis 168 [1], first compound 0.0625 µg/mL, partner 0.25 µg/mL | 0.0437
B. subtilis 168 [1], first compound 0.125 µg/mL, partner 0.0625 µg/mL | 0.0353
B. subtilis 168 [1], first compound 0.125 µg/mL, partner 0.125 µg/mL | 0.0443
B. subtilis 168 [1], first compound 0.125 µg/mL, partner 0.25 µg/mL | 0.0489
S. pneumoniae D39V [2], first compound 0.1725 µg/mL, partner 0.5 µg/mL | 0.998
S. pneumoniae D39V [2], first compound 0.1725 µg/mL, partner 1 µg/mL | 0.992
S. pneumoniae D39V [2], first compound 0.1725 µg/mL, partner 2 µg/mL | 0.969
S. pneumoniae D39V [2], first compound 0.2 µg/mL, partner 2 µg/mL | 0.896
S. pneumoniae D39V [2], first compound 0.345 µg/mL, partner 0.5 µg/mL | 0.92
S. pneumoniae D39V [2], first compound 0.345 µg/mL, partner 1 µg/mL | 0.904
S. pneumoniae D39V [2], first compound 0.345 µg/mL, partner 2 µg/mL | 0.9
S. pneumoniae D39V [2], first compound 0.4 µg/mL, partner 2 µg/mL | 0.817
S. pneumoniae D39V [2], first compound 0.69 µg/mL, partner 0.5 µg/mL | 0.539
S. pneumoniae D39V [2], first compound 0.69 µg/mL, partner 1 µg/mL | 0.464
S. pneumoniae D39V [2], first compound 0.69 µg/mL, partner 2 µg/mL | 0.458
S. pneumoniae D39V [2], first compound 0.8 µg/mL, partner 2 µg/mL | 0.567

Conditions | Bliss interaction score
B. subtilis 168 [3] | 0.0195
S. aureus DSM 20231 | -0.0827
S. aureus Newman | -0.0223
S. pneumoniae D39V [4] | 0.0593

C[C@H]1COc2c(N3CCN(C)CC3)c(F)cc3c(=O)c(C(=O)O)cn1c23 [Levofloxacin] + CN(C)c1cc(NC(=O)CNC(C)(C)C)c(O)c2c1C[C@H]1C[C@H]3[C@H](N(C)C)C(O)=C(C(N)=O)C(=O)[C@@]3(O)C(O)=C1C2=O [Tigecycline]
fitness, B. subtilis 168 [1], one replicate
Conditions | partner 0.039 µg/mL | partner 0.078 µg/mL | partner 0.125 µg/mL | partner 0.156 µg/mL | partner 0.25 µg/mL | partner 0.5 µg/mL
first compound 0.001 µg/mL | 0.897 | 0.893 | – | 0.926 | – | –
first compound 0.002 µg/mL | 0.932 | 0.911 | ≥ 1 | 0.878 | 0.862 | 0.993
first compound 0.0039 µg/mL | 0.847 | 0.855 | 0.985 | 0.971 | 0.955 | 0.887
first compound 0.0078 µg/mL | – | – | 0.94 | – | 0.94 | 0.885

fitness
Conditions | first compound 0.0312 µg/mL | first compound 0.0625 µg/mL | first compound 0.125 µg/mL | first compound 0.1725 µg/mL | first compound 0.2 µg/mL | first compound 0.345 µg/mL | first compound 0.4 µg/mL | first compound 0.69 µg/mL | first compound 0.8 µg/mL
B. subtilis 168 [1], partner 0.039 µg/mL | 0.0258 | 0.0305 | 0.0314 | – | – | – | – | – | –
B. subtilis 168 [1], partner 0.078 µg/mL | 0.0327 | 0.0457 | 0.0438 | – | – | – | – | – | –
B. subtilis 168 [1], partner 0.156 µg/mL | 0.0426 | 0.0476 | 0.0441 | – | – | – | – | – | –
S. pneumoniae D39V [2], partner 0.65 µg/mL | – | – | – | 0.96 | 0.853 | 0.88 | 0.712 | 0.456 | 0.301
S. pneumoniae D39V [2], partner 1.3 µg/mL | – | – | – | 0.949 | 0.842 | 0.85 | 0.713 | 0.537 | 0.35
S. pneumoniae D39V [2], partner 2.6 µg/mL | – | – | – | 0.926 | 0.81 | 0.835 | 0.705 | 0.544 | 0.321

Conditions | Bliss interaction score
B. subtilis 168 [3] | -0.0381
S. aureus DSM 20231 | -0.101
S. aureus Newman | -0.045
S. pneumoniae D39V [4] | -0.132
